Assay results taken from patent US20050107289A1, “Anti-microbial peptides and compositions” (priority 2001, published 2005).
Where a name gives a salt, the structure may show the parent alone. Read-outs that look alike come from different tables or passages of the source. Non-standard residues stand in square brackets, D forms with d. Residues, ends and D or L forms follow the SMILES beside them.

What was measured:
[1] = tested on: S. aureus (MRSA) ATCC 33591; format: cell-based, Staphylococcus aureus; settings: Table 9
Method: (§1) The antimicrobial activity of the peptides was determined using a broth dilution assay essentially as descried in the guidelines of the National Committee for […] (NCCLS) [National Committee for Clinical Laboratory Standards. Methods for dilution antimicrobial susceptibility tests for bacteria that grow aerobically. Fourth edition. Approved Standard (1997). Document M7-A4. […] The microdilution method has the advantages of requiring less amount of peptide for each assay and the possibility of multiple simultaneous inoculations and was used in most studies. Several of the strains of bacteria tested are further described in Table 3.
(§2) Preparation of peptide solutions. Stock peptide solutions were prepared in 5% DMSO in aq. sucrose (9%). Determination of peptide concentrations was done by quantitative HPLC analysis using known concentrations of internal standards and/or by measuring UV absorption of tryptophane-containing peptide solutions in H2O (λ=280 εTrp: 5690). Serial 2-fold dilutions were made in the above DMSO/aq. sucrose (9%) mixture with concentrations ranging approximately 400-2 μg/ml and aliquots were dispensed in test tubes (100 μl) for the macrodilution test or in microtiter plates (20 μl) for the microdilution assays.
(§3) Inoculum preparation. Overnight cultures of different microorganisms grown in suitable media were diluted 4000 times to an approximate inoculum size of 2.5×10^5 cfu/ml.
(§4) Macrodilution method. Macrodilution methods were performed using procedures similar to those described in the National Committee for Clinical Laboratory Standards. Methods for dilution antimicrobial susceptibility tests for bacteria that grow aerobically. Fourth edition. Approved Standard (1997). Document M7-A4. (NCCLS,Villanova, Pa., 1997). Two ml aliquots of the above inoculum were dispensed to test tubes containing different peptide solutions.
(§5) Microdilution method. Microdilution methods were performed using procedures similar to those described in the National Committee for Clinical Laboratory Standards. Methods for dilution antimicrobial susceptibility tests for bacteria that grow aerobically. Fourth edition. Approved Standard (1997). Document M7-A4.

murine red blood cells = experiment: Red blood cell hemolysis; format: cell-based, mouse
Method: Selectivity of cyclic peptides for bacterial over mammalian cells was evaluated by measuring red blood cell hemolytic activities as described in Tosteson, M. T. Holmes, S. J., Razin, M. and Tosteson, D. C. Melittin Lysis of Red Cells, J. Membrane Biol. 87, 35-44(1985). Heparinized murine blood was centrifuged at 1000×g for 10 minutes. The supernatant and the buffy coat were removed. Erythrocytes were washed three times with 0.9% saline solution and then resuspended to a concentration of 5% in saline containing 10% FBS (v/v). Red blood cells were then treated with serial dilutions of test peptides in a 96 well plate at 37° C. for 30 minutes. Control samples included a saline solution arid 1% Triton X-100 as 0 and 100% hemolysis, respectively. In some cases, mellitin was used as a further control. Mellitin is a linear peptide that is hemolytic against mammalian red blood cells in vitro at a concentration of about 10 μg/ml. Plates were centrifuged at 1000 g for 10 minutes. Aliquots of the supernatant were diluted 2 times with saline solution and the absorbance was measured at 560 nm.

[2] = tested on: vancomycin-resistant Enterococus faecalis (VRE)(ATCC 51575); format: cell-based, Enterococcus faecalis; design: key to VRE (in vitro activity): peptide concentration in μg/ml (broth dilution assay); settings: Table 9
Method: as §1, §2, §3, §4, §5

[3] = media a: anti-microbial media-3 (AM-3)
[4] = media b: cation adjusted Meuller Hinton broth (MHBII)
[5] = media c: Brain Heart Infusion (BHI)

| SMILES | MRSA (in vitro activity) [1, 3] | RBC Hemolysis (HD50) (murine red blood cells) | VRE (in vitro activity) ([2]; media a: AM-3) | MRSA (in vitro activity) [1, 4] | VRE (in vitro activity) [2, 5] | VRE (in vitro activity) ([2]; media b: MHBII) |
| --- | --- | --- | --- | --- | --- | --- |
| CC(C)C[C@@H]1NC(=O)[C@@H](Cc2c[nH]c3ccccc23)NC(=O)[C@H](CCC(N)=O)NC(=O)[C@@H](CCC(N)=O)NC(=O)[C@H](CCCCN)NC(=O)[C@@H](Cc2c[nH]c3ccccc23)NC1=O [SEQ ID NO:124, [KQQWLW]] (cyclo(K[dQ]Q[dW]L[dW])) | >35 | >35 | >35 |  |  |  |
| CC(C)C[C@H]1NC(=O)[C@H](CCCCN)NC(=O)[C@@H](CO)NC(=O)[C@H](CCCCN)NC(=O)[C@@H](CC(C)C)NC(=O)[C@H](CCC(N)=O)NC(=O)[C@@H](CC(C)C)NC(=O)[C@H](CCC(N)=O)NC1=O [SEQ ID NO:104, [KSKLQLQL]] (cyclo(K[dS]K[dL]Q[dL]Q[dL])) |  | >200 |  | >200 | >200 |  |
| C[C@H](O)[C@H]1NC(=O)[C@H](CCCNC(=N)N)NC(=O)[C@@H](CO)NC(=O)[C@H](CCC(N)=O)NC(=O)[C@@H](Cc2c[nH]cn2)NC(=O)[C@H](CCCCN)NC1=O [SEQ ID NO:130, [KHQSRT]] (cyclo(K[dH]Q[dS]R[dT])) |  | >200 |  | >200 | >200 |  |
| CC(C)C[C@H]1NC(=O)[C@H](CCCCN)NC(=O)[C@@H](CCCNC(=N)N)NC(=O)[C@H](CCCCN)NC(=O)[C@@H](CC(C)C)NC(=O)[C@H](Cc2ccccc2)NC(=O)[C@@H](CC(C)C)NC(=O)[C@H](Cc2ccccc2)NC1=O [SEQ ID NO:52, [KRKLFLFL]] (cyclo(K[dR]K[dL]F[dL]F[dL])) |  | >180 |  | 11 | 22 |  |
| C[C@H]1NC(=O)[C@H](CCCCN)NC(=O)[C@@H](Cc2ccccc2)NC(=O)[C@H](CCC(N)=O)NC(=O)[C@@H](C)NC(=O)[C@H](CCCCN)NC(=O)[C@@H](Cc2ccccc2)NC(=O)[C@H](Cc2c[nH]c3ccccc23)NC1=O [SEQ ID NO:97, [KAQFKAWF]] (cyclo(K[dA]Q[dF]K[dA]W[dF])) |  | >200 |  | 100 | 100 |  |
| CC(C)C[C@@H]1NC(=O)[C@@H](Cc2c[nH]c3ccccc23)NC(=O)[C@H](CCCCN)NC(=O)[C@@H](CO)NC(=O)[C@H](CCC(N)=O)NC(=O)[C@@H](CO)NC(=O)[C@H](CCCCN)NC(=O)[C@@H](Cc2c[nH]c3ccccc23)NC1=O [SEQ ID NO:92, [KSQSKWLW]] (cyclo(K[dS]Q[dS]K[dW]L[dW])) |  | 195 |  | 9 | 18 |  |
| CC(C)C[C@H]1NC(=O)[C@H](C)NC(=O)[C@@H](CC(C)C)NC(=O)[C@H](CCCCN)NC(=O)[C@@H](Cc2c[nH]cn2)NC(=O)[C@H](CCCCN)NC(=O)[C@@H](CC(C)C)NC(=O)[C@H](Cc2c[nH]c3ccccc23)NC1=O [SEQ ID NO:46, [KHKLALWL]] (cyclo(K[dH]K[dL]A[dL]W[dL])) |  | >200 |  | 25 | 50 |  |
| CC(C)C[C@H]1NC(=O)[C@H](C(C)C)NC(=O)[C@@H](CC(C)C)NC(=O)[C@H](C(C)C)NC(=O)[C@@H](CCCCN)NC(=O)[C@H](CO)NC(=O)[C@@H](CO)NC(=O)[C@H](CCCCN)NC1=O [SEQ ID NO:80, [KSSKVLVL]] (cyclo(K[dS]S[dK]V[dL]V[dL])) |  | >180 |  | 22 | 180 |  |
| NCCCC[C@@H]1NC(=O)[C@@H](Cc2ccccc2)NC(=O)[C@H](CCC(N)=O)NC(=O)[C@@H](Cc2ccccc2)NC(=O)[C@H](CCCCN)NC(=O)[C@@H](CC(N)=O)NC(=O)[C@H](Cc2c[nH]c3ccccc23)NC(=O)[C@@H](CC(N)=O)NC1=O [SEQ ID NO:98, [KFQFKNWN]] (cyclo(K[dF]Q[dF]K[dN]W[dN])) |  | >280 |  | >200 | >200 |  |
| CC(C)C[C@H]1NC(=O)[C@H](Cc2c[nH]c3ccccc23)NC(=O)[C@@H](CO)NC(=O)[C@H](CCCCN)NC(=O)[C@@H](Cc2ccccc2)NC(=O)[C@H](Cc2c[nH]c3ccccc23)NC(=O)[C@@H](CC(C)C)NC(=O)[C@H](Cc2c[nH]c3ccccc23)NC1=O [SEQ ID NO:42, [KSWLWLWF]] (cyclo(K[dS]W[dL]W[dL]W[dF])) | >26 | >26 | >26 |  |  |  |
| CC(C)C[C@@H]1NC(=O)[C@@H](Cc2c[nH]c3ccccc23)NC(=O)[C@H](CCCCN)NC(=O)[C@@H](CO)NC(=O)[C@H](CCCCN)NC(=O)[C@@H](CO)NC(=O)[C@H](CCCCN)NC(=O)[C@@H](Cc2c[nH]c3ccccc23)NC1=O [SEQ ID NO:91, [KSKSKWLW]] (cyclo(K[dS]K[dS]K[dW]L[dW])) |  | 200 |  | 6 | 12 |  |
| CC(C)C[C@H]1NC(=O)[C@H](C)NC(=O)[C@@H](CC(C)C)NC(=O)[C@H](CCCCN)NC(=O)[C@@H](Cc2c[nH]cn2)NC(=O)[C@H](CCCCN)NC(=O)[C@@H](CC(C)C)NC(=O)[C@H](C)NC1=O [SEQ ID NO:45, [KHKLALAL]] (cyclo(K[dH]K[dL]A[dL]A[dL])) |  | >200 |  | 50 | 200 |  |
| CC(C)C[C@H]1NC(=O)[C@H](Cc2c[nH]c3ccccc23)NC(=O)[C@@H](CCCCN)NC(=O)[C@H](CCCCN)NC(=O)[C@@H](CCCCN)NC(=O)[C@H](Cc2c[nH]c3ccccc23)NC(=O)[C@@H](CC(C)C)NC(=O)[C@H](Cc2c[nH]c3ccccc23)NC1=O [[KKKWLWLW-HCl] (17), cyclo[-(D-Lys-Lys-D-Lys-(Trp-D-Leu)2-Trp-]] (cyclo([dK]K[dK]W[dL]W[dL]W)) |  | 75 |  | 6 | 6 |  |
| CC(C)C[C@H]1NC(=O)[C@H](Cc2ccccc2)NC(=O)[C@@H](CCCCN)NC(=O)[C@H](CCCCN)NC(=O)[C@@H](CO)NC(=O)[C@H](CCCCN)NC(=O)[C@@H](CC(C)C)NC(=O)[C@H](Cc2ccccc2)NC1=O [SEQ ID NO:76, [KSKKFLFL]] (cyclo(K[dS]K[dK]F[dL]F[dL])) |  | 100 |  | 5 | 10 |  |
| CC(C)C[C@@H]1NC(=O)[C@@H](Cc2c[nH]c3ccccc23)NC(=O)[C@H](CCCCN)NC(=O)[C@@H](Cc2c[nH]cn2)NC(=O)[C@H](CCC(N)=O)NC(=O)[C@@H](Cc2c[nH]cn2)NC(=O)[C@H](CCCCN)NC(=O)[C@@H](Cc2c[nH]c3ccccc23)NC1=O [SEQ ID NO:87, [KHQHKWLW]] (cyclo(K[dH]Q[dH]K[dW]L[dW])) |  | 200 |  | 6 | 12 |  |
| CC(C)C[C@H]1NC(=O)[C@H](Cc2ccccc2)NC(=O)[C@@H](Cc2c[nH]cn2)NC(=O)[C@H](CCCCN)NC(=O)[C@@H](Cc2c[nH]cn2)NC(=O)[C@H](CCCCN)NC(=O)[C@@H](CC(C)C)NC(=O)[C@H](Cc2c[nH]c3ccccc23)NC1=O [SEQ ID NO:72, [KHKHFLWL]] (cyclo(K[dH]K[dH]F[dL]W[dL])) |  | 200 |  | 8 | 16 |  |
| CC(C)C[C@@H]1NC(=O)[C@@H](Cc2c[nH]c3ccccc23)NC(=O)[C@H](C(C)C)NC(=O)[C@@H](CCCNC(=N)N)NC(=O)[C@H](CCC(N)=O)NC(=O)[C@@H](CCCNC(=N)N)NC(=O)[C@H](Cc2c[nH]c3ccccc23)NC(=O)[C@@H](Cc2c[nH]c3ccccc23)NC1=O [SEQ ID NO:70, [QRVWLWWR]] (cyclo(Q[dR]V[dW]L[dW]W[dR])) |  | 30 |  | 12.5 |  | 6.3 |
| CC(C)C[C@H]1NC(=O)[C@H](CCCCN)NC(=O)[C@@H](Cc2c[nH]cn2)NC(=O)[C@H](CCCCN)NC(=O)[C@@H](CC(C)C)NC(=O)[C@H](Cc2c[nH]c3ccccc23)NC(=O)[C@@H](CC(C)C)NC(=O)[C@H](Cc2ccccc2)NC1=O [SEQ ID NO:49, [KHKLFLWL]] (cyclo(K[dH]K[dL]F[dL]W[dL])) |  | 200 |  | 12 | 25 |  |
